For 26 compounds, inhibition and Activity results are on record in ChEMBL document CHEMBL5390249, “Analysis of structure-activity relationship of indol-3-yl-N-phenylcarbamic amides as potent STING inhibitors” (Bioorg Med Chem, 2023).

Calls of active or inactive are those of the source. No cut-off for these calls is given here.

Stimulator of interferon genes protein (Homo sapiens), sequence (Q86WV6 whole entry): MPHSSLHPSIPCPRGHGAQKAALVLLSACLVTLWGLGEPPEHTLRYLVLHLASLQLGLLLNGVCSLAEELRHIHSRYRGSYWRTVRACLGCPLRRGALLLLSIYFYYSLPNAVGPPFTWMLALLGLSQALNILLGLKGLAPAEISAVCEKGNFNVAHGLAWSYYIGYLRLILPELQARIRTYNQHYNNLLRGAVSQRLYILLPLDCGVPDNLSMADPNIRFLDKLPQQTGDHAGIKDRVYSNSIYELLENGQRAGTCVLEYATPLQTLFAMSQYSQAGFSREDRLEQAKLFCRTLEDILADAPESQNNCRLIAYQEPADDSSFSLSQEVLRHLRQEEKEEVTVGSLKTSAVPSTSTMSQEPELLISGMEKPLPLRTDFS

The first data set has as its target Stimulator of interferon genes protein (Homo sapiens) (UniProt Q86WV6). The experiment in a line: Inhibition of STING in human THP1-Dual KI-hSTING-R232 cells assessed as cGAMP-induced IRF luciferase expression at 1 uM incubated for 2 hrs by QUANTI-Luc reagent based luciferase reporter assay. In kind it is cell-based. In general terms: In a reporter assay the amount or activity of a reporter protein is the signal.
Regarding `COc1cccc(NC(=O)Nc2c[nH]c3ccccc23)c1`, the inhibition result is “Active”.

As for `NC(=O)c1ccc(NC(=O)Nc2c[nH]c3ccccc23)cc1`, the inhibition result was “inactive”.

In the case of `Cc1cccc(NC(=O)Nc2c[nH]c3ccccc23)c1C`, the inhibition entry was “inactive”.

As to `Cn1cc(NC(=O)Nc2ccc(F)c(Cl)c2)c2ccccc21`, the inhibition result was “inactive”.

Take `Cc1cccc(NC(=O)Nc2c[nH]c3ccccc23)c1`: the inhibition entry is “Active”.

Turning to `CCc1ccccc1NC(=O)Nc1c[nH]c2ccccc12`, the inhibition result was “inactive”.

For `CCc1ccc(NC(=O)Nc2cn(C)c3ccccc23)cc1`, the inhibition result was “inactive”.

For `CN(C)c1ccc(NC(=O)Nc2c[nH]c3ccccc23)cc1`, the inhibition result was “inactive”.

For the compound `COc1ccc(NC(=O)Nc2c[nH]c3ccccc23)cc1`, the inhibition entry was “inactive”.

On to `O=C(Nc1ccc2c(c1)OCCO2)Nc1c[nH]c2ccccc12`, for which the inhibition result was “inactive”.

Consider `O=C(Nc1c[nH]c2ccccc12)N1Cc2ccccc2C1`, for which the inhibition result was “inactive”.

For `CC(=O)c1ccc(NC(=O)Nc2cn(C)c3ccccc23)cc1`, the inhibition entry is “inactive”.

On to `Cc1ccccc1NC(=O)Nc1c[nH]c2ccccc12`, for which the inhibition entry was “inactive”.

With `O=C(Nc1cccc(F)c1)Nc1c[nH]c2ccccc12`, the inhibition result is “Active”.

As for `Cc1ccc(NC(=O)Nc2c[nH]c3ccccc23)c(C)c1`, the inhibition result was “inactive”.

For `Cn1cc(NC(=O)Nc2ccc(OC(F)(F)F)cc2)c2ccccc21`, the inhibition entry was “inactive”.

Consider `Cn1cc(NC(=O)Nc2ccc(C(N)=O)cc2)c2ccccc21`, for which the inhibition result is “inactive”.

With `Cn1cc(NC(=O)Nc2ccc(F)c(F)c2)c2ccccc21`, the inhibition result is “inactive”.

`O=C(Nc1cccc(Cl)c1)Nc1c[nH]c2ccccc12`: the inhibition entry was “Active”.

Turning to `CN(C(=O)Nc1c[nH]c2ccccc12)c1ccccc1`, the inhibition entry was “inactive”.

The next data set deals with Detroit 551. The experiment in a line: Cytotoxicity against human Detroit 551 cells assessed as reduction in cell viability by MTS assay. In kind it is toxicity, cell-based.
For the compound `O=C(Nc1ccc(Cl)cc1)Nc1c[nH]c2ccccc12`, the Activity entry is listed as “Non-Toxic”.

`CCc1ccc(NC(=O)Nc2c[nH]c3ccccc23)cc1`: the Activity result is listed as “Non-Toxic”.

Take `O=C(Nc1ccc(OC(F)(F)F)cc1)Nc1c[nH]c2ccccc12`: the Activity result is on record as “Non-Toxic”.

Turning to `Cc1ccc(NC(=O)Nc2c[nH]c3ccccc23)cc1Cl`, the Activity result was “Non-Toxic”.

With `O=C(Nc1ccc(C(F)(F)F)cc1)Nc1c[nH]c2ccccc12`, the Activity entry was “Non-Toxic”.

As for `CC(C)c1ccc(NC(=O)Nc2c[nH]c3ccccc23)cc1`, the Activity result is listed as “Non-Toxic”.
